# Source: patent publication US10092620B2, “Uses of cyclic peptides for treating and preventing atherosclerosis” (THE SCRIPPS RESEARCH INSTITUTE, priority 2013, dated 2018)
# Non-standard residues stand in square brackets, D forms with d. Residues, ends and D or L forms follow the SMILES beside them. 1Nal = N[C@@H](Cc1cccc2ccccc12)C(=O)O; Aoc(2) = CCCCCC[C@H](N)C(=O)O; dOrn = NCCC[C@@H](N)C(=O)O; Orn = NCCC[C@H](N)C(=O)O; Dap = NC[C@H](N)C(=O)O
# Tested on: mouse macrophage J774 cells
# Assay: cholesterol efflux from mouse macrophage cells incubated with peptide-treated human plasma
# Assay type: cell-based
# Settings: J774 cells in the efflux assay
# Protocol: Selected cyclic D,L-α-peptides were further evaluated for their ability to promote cellular cholesterol efflux from mouse macrophage J774 cells. A main factor for HDL anti-atherogenicity is its role in reverse cholesterol transport, of which cellular cholesterol efflux is a critical component. To measure efflux mediated by the cyclic D,L-α-peptides, cholesterol-laden cells were incubated with peptide-treated plasma for 4 h, after which the level of cholesterol effluxed to the media was measured as described in Sankaranarayanan et al., J. Lipid Res. 52, 2332-2340, 2011.
# Preparation of labeling medium: These procedures were modified from that reported in Sankaranarayanan et al., J. Lipid Res. 52, 2332-2340, 2011. The labeling medium was prepared by complexing the unlabeled cholesterol and BODIPY-cholesterol (20% of the total cholesterol) with methyl-β-cyclodextrin (CD) at a molar ratio of 1:40 (total cholesterol/CD). Unlabeled cholesterol and BODIPY-cholesterol were dissolved in chloroform and dried in a round bottom flask by rotor-evaporation in the dark to form a thin film. The cholesterol mixture was solubilized by adding 20 mM CD in MEM-HEPES buffer. The suspension was sonicated in a water bath (37° C.) for at 1 h, stirred at 37° C. for 3 h, filtered using a 0.45-μm syringe filter, and diluted with an equal volume of MEM-HEPES buffer containing 4 μg/mL Sandoz ACAT (acyl-CoA:cholesterol acyltransferase) inhibitor (Sigma). The final concentrations of BODIPY-cholesterol, unlabeled cholesterol, CD, and ACAT inhibitor in the labeling medium were 0.025 mM, 0.1 mM, 10 mM, and […], respectively.
# Preparation of efflux medium: Just before the initiation of the efflux assays, the human plasma frozen at −80° C. was thawed, and 80 μL of plasma was incubated with 20 μL of cyclic peptide stocks (peptide stocks were 1-3 mg/mL in 10% sucrose) or the vehicle (10% sucrose) at 37° C. for 30 min. The treated plasma samples (100 μL) were then incubated with 25% PEG 8000 solution in 200 mM glycine buffer, pH 8.5 (40 μL) to precipitate apoB-containing lipoproteins (Asztalos et al., J. Lipid Res. 46, 2246-2253, 2005). After a 15-min incubation, the precipitate was removed by high-speed centrifugation (13,000 rpm, 10 min, 4° C.), and the supernatant (60 μL) was immediately diluted with MEM-HEPES buffer (1.5 mL) to give ˜2% whole plasma. This solution, containing the peptide remodeled-HDL lipoprotein fraction as cholesterol acceptors, was used as the efflux medium.
# Cholesterol efflux from mouse macrophage cells: Mouse macrophage J774A.1 cells (TIB-67; American Type Culture Collection, Manassas, Va.) were seeded in 12-well culture plate at 3×10^5 cells/mL and cultured to 80-90% confluency in DMEM with 10% FBS at 5% CO2. Cells were rinsed twice with MEM-HEPES, incubated for 1 h with 0.25 ml of labeling medium containing CD/BODIPY-cholesterol/unlabeled cholesterol and 2 μg/mL Sandoz ACAT inhibitor, followed by washing twice with MEM-HEPES. The cholesterol-laden cells were equilibrated for 18 h in DMEM containing 5% LPDS, […] Sandoz ACAT inhibitor, and 0.3 mM Cpt-cAMP. After equilibration, the cells were washed twice with MEM-HEPES and incubated with 0.25 mL of efflux media for 4 h. At the end of the incubation time, the efflux media was removed and centrifuged (1200 rpm, 10 min) to remove floating cells, and the fluorescence intensity of 100 μL cell-free media was recorded using a Tecan GENios plate reader (excitation 485 nm, emission 535 nm). The obtained signals were background subtracted using the signal from unlabeled cells. The cell monolayers were rinsed twice with ice-cold MEM-HEPES and solubilized with 0.25 mL 1% cholic acid by shaking on a plate shaker for at least 4 h at room temperature; then the fluorescence intensity of 100 μL cell lysate was recorded and background subtracted using the signal from unlabeled cell lysate. […]
row,Compound,toxicity based on the cellular morphology and density
1,"CC(C)C[C@@H]1NC(=O)[C@@H](Cc2c[nH]c3ccccc23)NC(=O)[C@H](CCCN)NC(=O)[C@@H](CO)NC(=O)[C@H](CCC(N)=O)NC(=O)[C@@H](CCC(=O)O)NC(=O)[C@H](CO)NC(=O)[C@@H](Cc2c[nH]c3ccccc23)NC1=O [SEQ ID NO:4, c[wLwSeQsO]] (cyclo([dW]L[dW]S[dE]Q[dS][Orn]))",did not appear to be toxic

# Same assay, conditions: J774 cells, 2% apoB-depleted peptide-treated human plasma, 4 h; FIG. 2b
row,Compound,promotion of cellular cholesterol efflux (in words)
1,"CC(C)C[C@@H]1NC(=O)[C@@H](Cc2c[nH]c3ccccc23)NC(=O)[C@H](CCCN)NC(=O)[C@@H](CO)NC(=O)[C@H](CCC(N)=O)NC(=O)[C@@H](CCC(=O)O)NC(=O)[C@H](CO)NC(=O)[C@@H](Cc2c[nH]c3ccccc23)NC1=O [SEQ ID NO:4, c[wLwSeQsO]] (cyclo([dW]L[dW]S[dE]Q[dS][Orn]))",only marginally less effective than the α-helical apoA-I mimetic 4F

# Tested on: HDL in human plasma
# Assay: pre-beta HDL ELISA assay: remodeling HDL in human plasma in vitro
# Assay type: biochemical
# Settings: not given
# Protocol: First, various cyclic peptides, including the majority of compounds shown in FIG. 2, were assessed for activities for remodeling HDL in human plasma in vitro. Unlike western blot which was used to generate data shown in FIG. 2, here a pre-beta HDL ELISA assay was used to measure pre-beta HDL levels. Results from the assay are shown in Table 1, which lists the peptides in the order of their activities in remodeling HDL.
row,Compound,activity in generating pre-beta HDL (in words)
1,c[WIWrEqEr] (cyclo(WIW[dR]E[dQ]E[dR]); SMILES CC[C@H](C)[C@@H]1NC(=O)[C@H](Cc2c[nH]c3ccccc23)NC(=O)[C@@H](CCCNC(=N)N)NC(=O)[C@H](CCC(=O)O)NC(=O)[C@@H](CCC(N)=O)NC(=O)[C@H](CCC(=O)O)NC(=O)[C@@H](CCCNC(=N)N)NC(=O)[C@H](Cc2c[nH]c3ccccc23)NC1=O) [SEQ ID NO:50],excellent activities in generating plasma pre-beta HDL
2,c[WlWwkhkh] (cyclo(WIW[dW][dK][dH][dK][dH])) [SEQ ID NO:47],excellent activities in generating plasma pre-beta HDL
3,c[fWwYqHhQ] (cyclo([dF]W[dW]Y[dQ]H[dH]Q); SMILES NC(=O)CC[C@@H]1NC(=O)[C@@H](Cc2c[nH]cn2)NC(=O)[C@H](Cc2c[nH]cn2)NC(=O)[C@@H](CCC(N)=O)NC(=O)[C@H](Cc2ccc(O)cc2)NC(=O)[C@@H](Cc2c[nH]c3ccccc23)NC(=O)[C@H](Cc2c[nH]c3ccccc23)NC(=O)[C@@H](Cc2ccccc2)NC1=O) [SEQ ID NO:5],excellent activities in promoting generation of pre-beta HDL
4,c[fWwYtRhS] (cyclo([dF]W[dW]Y[dT]R[dH]S); SMILES C[C@H](O)[C@H]1NC(=O)[C@H](Cc2ccc(O)cc2)NC(=O)[C@@H](Cc2c[nH]c3ccccc23)NC(=O)[C@H](Cc2c[nH]c3ccccc23)NC(=O)[C@@H](Cc2ccccc2)NC(=O)[C@H](CO)NC(=O)[C@@H](Cc2c[nH]cn2)NC(=O)[C@H](CCCNC(=N)N)NC1=O) [SEQ ID NO:51],excellent activities in promoting generation of pre-beta HDL

# Same assay, conditions: pre-beta HDL ELISA
row,Compound,Pre-beta HDL generated (normalized level)
1,68 (cyclo([dW]W[dF]Y[dK]H[dS]S); SMILES NCCCC[C@H]1NC(=O)[C@H](Cc2ccc(O)cc2)NC(=O)[C@@H](Cc2ccccc2)NC(=O)[C@H](Cc2c[nH]c3ccccc23)NC(=O)[C@@H](Cc2c[nH]c3ccccc23)NC(=O)[C@H](CO)NC(=O)[C@@H](CO)NC(=O)[C@H](Cc2c[nH]cn2)NC1=O) [compound 68],0.07
2,69 (cyclo([dL]W[dL]H[dE]K[dK]H); SMILES CC(C)C[C@H]1NC(=O)[C@H](Cc2c[nH]cn2)NC(=O)[C@@H](CCCCN)NC(=O)[C@H](CCCCN)NC(=O)[C@@H](CCC(=O)O)NC(=O)[C@H](Cc2c[nH]cn2)NC(=O)[C@@H](CC(C)C)NC(=O)[C@H](Cc2c[nH]c3ccccc23)NC1=O) [compound 69],0.07
3,70 (cyclo(L[dL]W[dL]K[dK]K[dK]); SMILES CC(C)C[C@@H]1NC(=O)[C@@H](CCCCN)NC(=O)[C@H](CCCCN)NC(=O)[C@@H](CCCCN)NC(=O)[C@H](CCCCN)NC(=O)[C@@H](CC(C)C)NC(=O)[C@H](Cc2c[nH]c3ccccc23)NC(=O)[C@@H](CC(C)C)NC1=O) [compound 70],0.06
4,71 (cyclo(WGWGW[dK]S[dOrn]); ring closure inferred) [compound 71],0.06
5,72 (cyclo([dL]W[dK]H[dS]H[dK]K); SMILES CC(C)C[C@H]1NC(=O)[C@H](CCCCN)NC(=O)[C@@H](CCCCN)NC(=O)[C@H](Cc2c[nH]cn2)NC(=O)[C@@H](CO)NC(=O)[C@H](Cc2c[nH]cn2)NC(=O)[C@@H](CCCCN)NC(=O)[C@H](Cc2c[nH]c3ccccc23)NC1=O) [compound 72],0.04
6,73 (cyclo(L[dW]L[dH]K[dK]E[dH]); SMILES CC(C)C[C@@H]1NC(=O)[C@@H](Cc2c[nH]c3ccccc23)NC(=O)[C@H](CC(C)C)NC(=O)[C@@H](Cc2c[nH]cn2)NC(=O)[C@H](CCC(=O)O)NC(=O)[C@@H](CCCCN)NC(=O)[C@H](CCCCN)NC(=O)[C@@H](Cc2c[nH]cn2)NC1=O) [compound 73],0.04
7,74 (cyclo([dF]F[dY]F[dK]K); SMILES NCCCC[C@@H]1NC(=O)[C@@H](CCCCN)NC(=O)[C@H](Cc2ccccc2)NC(=O)[C@@H](Cc2ccc(O)cc2)NC(=O)[C@H](Cc2ccccc2)NC(=O)[C@@H](Cc2ccccc2)NC1=O) [compound 74],0.04
8,75 (cyclo([dW]L[dW][Dap][dE]Q[dE]K); ring closure inferred) [compound 75],0.03
9,76 (cyclo([dL]W[dL]K[dK]K[dH]R); SMILES CC(C)C[C@H]1NC(=O)[C@H](CCCNC(=N)N)NC(=O)[C@@H](Cc2c[nH]cn2)NC(=O)[C@H](CCCCN)NC(=O)[C@@H](CCCCN)NC(=O)[C@H](CCCCN)NC(=O)[C@@H](CC(C)C)NC(=O)[C@H](Cc2c[nH]c3ccccc23)NC1=O) [compound 76],0.03
10,77 (cyclo(W[dF]E[dL]Y[dS]H[dOrn]); ring closure inferred) [compound 77],0.02
11,78 (cyclo([dY]L[dW]K[dK]K); SMILES CC(C)C[C@@H]1NC(=O)[C@@H](Cc2ccc(O)cc2)NC(=O)[C@H](CCCCN)NC(=O)[C@@H](CCCCN)NC(=O)[C@H](CCCCN)NC(=O)[C@@H](Cc2c[nH]c3ccccc23)NC1=O) [compound 78],0.01
12,79 (cyclo([dW]L[dK]S[dK]S[dK]S); SMILES CC(C)C[C@@H]1NC(=O)[C@@H](Cc2c[nH]c3ccccc23)NC(=O)[C@H](CO)NC(=O)[C@@H](CCCCN)NC(=O)[C@H](CO)NC(=O)[C@@H](CCCCN)NC(=O)[C@H](CO)NC(=O)[C@@H](CCCCN)NC1=O) [compound 79],0.01
13,80 (cyclo([dW]L[dW]R[dD]Q[dE]K); SMILES CC(C)C[C@@H]1NC(=O)[C@@H](Cc2c[nH]c3ccccc23)NC(=O)[C@H](CCCCN)NC(=O)[C@@H](CCC(=O)O)NC(=O)[C@H](CCC(N)=O)NC(=O)[C@@H](CC(=O)O)NC(=O)[C@H](CCCNC(=N)N)NC(=O)[C@@H](Cc2c[nH]c3ccccc23)NC1=O) [compound 80],0.01
14,"CC(C)C[C@@H]1NC(=O)[C@@H](Cc2c[nH]c3ccccc23)NC(=O)[C@H](CCCN)NC(=O)[C@@H](CO)NC(=O)[C@H](CCC(N)=O)NC(=O)[C@@H](CCC(=O)O)NC(=O)[C@H](CO)NC(=O)[C@@H](Cc2c[nH]c3ccccc23)NC1=O [SEQ ID NO:4, c[wLwSeQsO]] (cyclo([dW]L[dW]S[dE]Q[dS][Orn]))",0.59
15,c[wLwKeNeK] (cyclo([dW]L[dW]K[dE]N[dE]K); SMILES CC(C)C[C@@H]1NC(=O)[C@@H](Cc2c[nH]c3ccccc23)NC(=O)[C@H](CCCCN)NC(=O)[C@@H](CCC(=O)O)NC(=O)[C@H](CC(N)=O)NC(=O)[C@@H](CCC(=O)O)NC(=O)[C@H](CCCCN)NC(=O)[C@@H](Cc2c[nH]c3ccccc23)NC1=O) [SEQ ID NO:11],0.24
16,w(Aoc)wReQeR (cyclo([dW][Aoc(2)][dW]R[dE]Q[dE]R); ring closure inferred) [SEQ ID NO:31],0.04
17,w(Nal)wReQeR (cyclo([dW][1Nal][dW]R[dE]Q[dE]R); ring closure inferred) [SEQ ID NO:28],0.35
